Results taken from patent publication US5547944A, “Dermatan sulphate possessing a thrombolytic activity, and pharmaceutical forms containing it” (Opocrin S.p.A., priority 1991, dated 1996).

Columns and labels:
[1] = tested on: thrombus formations in the occluded vena cava; assay: thrombolytic activity on already formed vena cava thrombus versus urokinase; assay type: in vivo, rat
Protocol: DS administered intravenously is active at a dose of 0.1 mg/kg in inhibiting 90% of a Jugular vein thrombosis induced by Protein Complex Concentrate (PCC) in the rabbit, and in inhibiting 70% of a thrombosis induced by a PCC/RVV (Russel Viper Venom) combination; (Fareed J. et al.; Sem. Thromb. Haemost. 11, 155-157 (1985)).
With dermatan sulphate fractions similar to the one coded 1.25M as obtained in Example 1b) comparative studies were made on thrombolytic activity versus urokinase. Four groups of 10 rats each were anaesthetised with 1 g/kg of urethane administered in endoperitoneal physiological solution by endoperitoneal route. The vena cava of the rats was subjected to ligature in line with the Reyers test (Thromb. Res. 18, 699, 1980), and two hours after the ligature 5 mg/kg/i.v. of DS and 5000 U/kg of Ukidan (Urokinase-Serono) were administered. After eight hours the thrombus formations in the occluded vein were removed.

bleeding time = details: in vivo

Substance	reduction in thrombus weight ([1]; bolus then 6 hours infusion: DS 2.5 mg/kg + 1.25 mg/kg/hour, urokinase 2500 U/kg + 1250 U/kg/hour, relative to untreated controls) [%]	mean thrombus weight ([1]; treated two hours after ligature, 5 mg/kg i.v. DS or 5000 U/kg Ukidan, thrombus removed eight hours after ligature) [mg]	effect on bleeding time (bleeding time)
Urokinase	70.2	2.2	
dermatan sulphate [DS]			very little effect
